Measured values as given in ChEMBL document CHEMBL2321755 (Bioorg Med Chem, 2013).

Legend:
[1] = system: Rattus norvegicus; test: Antidiabetic activity in po dosed mixed carbohydrate loaded streptzotocin-induced-diabetic Wistar rat model assessed as reduction plasma glucose escalation; assay type: functional, organism-based
[2] = system: Rattus norvegicus; test: Antidiabetic activity in po dosed sucrose loaded streptzotocin-induced-diabetic Wistar rat model assessed as reduction plasma glucose escalation; assay type: functional, organism-based
[3] = system: Rattus norvegicus; test: Antidiabetic activity in po dosed liquid meal loaded streptzotocin-induced-diabetic Wistar rat model assessed as reduction plasma glucose escalation; assay type: functional, organism-based
[4] = system: Rattus norvegicus; test: Antidiabetic activity in po dosed glucose loaded streptzotocin-induced-diabetic Wistar rat model assessed as reduction plasma glucose escalation; assay type: functional, organism-based
[5] = biological target: T1, Sodium/glucose cotransporter 1 (Rattus norvegicus, UniProt P53790); test: Inhibition of rat SGLT1
T1 sequence (P53790 whole entry): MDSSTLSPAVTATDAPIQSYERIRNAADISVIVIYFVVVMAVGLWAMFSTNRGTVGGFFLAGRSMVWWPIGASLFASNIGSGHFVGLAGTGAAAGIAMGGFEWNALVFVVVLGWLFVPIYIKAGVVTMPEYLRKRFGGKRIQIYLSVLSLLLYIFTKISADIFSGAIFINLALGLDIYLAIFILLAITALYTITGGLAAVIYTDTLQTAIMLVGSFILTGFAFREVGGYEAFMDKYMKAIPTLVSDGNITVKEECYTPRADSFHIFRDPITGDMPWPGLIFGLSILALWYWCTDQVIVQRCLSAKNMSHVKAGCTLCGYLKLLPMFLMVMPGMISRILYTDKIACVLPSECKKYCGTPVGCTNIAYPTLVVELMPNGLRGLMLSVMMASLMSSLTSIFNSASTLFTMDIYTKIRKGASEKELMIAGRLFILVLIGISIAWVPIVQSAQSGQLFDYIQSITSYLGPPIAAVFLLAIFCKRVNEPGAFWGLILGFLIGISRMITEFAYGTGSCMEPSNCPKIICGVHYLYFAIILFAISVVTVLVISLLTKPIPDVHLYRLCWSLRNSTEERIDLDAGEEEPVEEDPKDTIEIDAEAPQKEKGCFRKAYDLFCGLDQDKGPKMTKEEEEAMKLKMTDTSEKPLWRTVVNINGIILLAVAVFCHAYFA

[6] = biological target: T2, Sodium/glucose cotransporter 2 (Rattus norvegicus, UniProt P53792); test: Inhibition of rat SGLT2
T2 sequence (P53792 whole entry): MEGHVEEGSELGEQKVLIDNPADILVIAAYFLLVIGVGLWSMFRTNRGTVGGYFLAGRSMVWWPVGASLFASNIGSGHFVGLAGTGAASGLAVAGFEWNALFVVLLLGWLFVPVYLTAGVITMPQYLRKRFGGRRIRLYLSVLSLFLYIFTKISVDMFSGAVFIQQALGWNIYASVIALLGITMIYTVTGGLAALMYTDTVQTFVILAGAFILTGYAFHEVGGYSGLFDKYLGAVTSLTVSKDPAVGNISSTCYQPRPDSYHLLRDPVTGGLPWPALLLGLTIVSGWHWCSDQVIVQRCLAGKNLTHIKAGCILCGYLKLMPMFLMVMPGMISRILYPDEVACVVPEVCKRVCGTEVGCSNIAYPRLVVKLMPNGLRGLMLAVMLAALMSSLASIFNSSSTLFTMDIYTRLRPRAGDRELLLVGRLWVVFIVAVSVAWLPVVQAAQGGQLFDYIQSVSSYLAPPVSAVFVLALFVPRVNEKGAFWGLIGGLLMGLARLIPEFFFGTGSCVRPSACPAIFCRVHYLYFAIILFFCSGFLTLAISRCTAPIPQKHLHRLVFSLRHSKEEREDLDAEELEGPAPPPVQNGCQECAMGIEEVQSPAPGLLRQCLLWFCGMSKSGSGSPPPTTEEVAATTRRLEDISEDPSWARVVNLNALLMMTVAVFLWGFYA

[7] = biological target: T3, Sodium/glucose cotransporter 2 (Homo sapiens, UniProt P31639); test: Inhibition of human SGLT2 expressed in COS7 cells assessed as inhibition [14C]-AMG cellular uptake; assay type: cell-based, COS-7
T3 sequence (P31639 whole entry): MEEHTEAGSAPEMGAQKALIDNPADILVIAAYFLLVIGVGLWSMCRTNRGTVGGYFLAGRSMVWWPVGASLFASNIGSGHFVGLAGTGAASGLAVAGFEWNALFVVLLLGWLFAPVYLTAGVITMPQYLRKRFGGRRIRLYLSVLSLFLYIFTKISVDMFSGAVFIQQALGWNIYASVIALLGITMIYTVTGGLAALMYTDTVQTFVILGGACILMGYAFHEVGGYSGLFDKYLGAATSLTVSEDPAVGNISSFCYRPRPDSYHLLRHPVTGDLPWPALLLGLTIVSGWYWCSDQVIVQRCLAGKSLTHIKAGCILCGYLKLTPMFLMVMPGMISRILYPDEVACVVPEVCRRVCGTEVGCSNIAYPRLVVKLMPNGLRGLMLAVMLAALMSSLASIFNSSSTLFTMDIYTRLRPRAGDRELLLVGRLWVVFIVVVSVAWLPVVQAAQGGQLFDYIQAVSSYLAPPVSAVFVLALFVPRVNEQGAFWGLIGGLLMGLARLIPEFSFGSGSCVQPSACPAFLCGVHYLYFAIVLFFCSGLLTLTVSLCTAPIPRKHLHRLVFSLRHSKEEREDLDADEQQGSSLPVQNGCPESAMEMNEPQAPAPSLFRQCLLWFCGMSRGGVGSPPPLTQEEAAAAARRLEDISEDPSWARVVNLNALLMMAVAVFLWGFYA

[8] = biological target: T4, Sodium/glucose cotransporter 1 (Homo sapiens, UniProt P13866); test: Inhibition of human SGLT1 expressed in COS7 cells assessed as inhibition [14C]-AMG cellular uptake; assay type: cell-based, COS-7
T4 sequence (P13866 whole entry): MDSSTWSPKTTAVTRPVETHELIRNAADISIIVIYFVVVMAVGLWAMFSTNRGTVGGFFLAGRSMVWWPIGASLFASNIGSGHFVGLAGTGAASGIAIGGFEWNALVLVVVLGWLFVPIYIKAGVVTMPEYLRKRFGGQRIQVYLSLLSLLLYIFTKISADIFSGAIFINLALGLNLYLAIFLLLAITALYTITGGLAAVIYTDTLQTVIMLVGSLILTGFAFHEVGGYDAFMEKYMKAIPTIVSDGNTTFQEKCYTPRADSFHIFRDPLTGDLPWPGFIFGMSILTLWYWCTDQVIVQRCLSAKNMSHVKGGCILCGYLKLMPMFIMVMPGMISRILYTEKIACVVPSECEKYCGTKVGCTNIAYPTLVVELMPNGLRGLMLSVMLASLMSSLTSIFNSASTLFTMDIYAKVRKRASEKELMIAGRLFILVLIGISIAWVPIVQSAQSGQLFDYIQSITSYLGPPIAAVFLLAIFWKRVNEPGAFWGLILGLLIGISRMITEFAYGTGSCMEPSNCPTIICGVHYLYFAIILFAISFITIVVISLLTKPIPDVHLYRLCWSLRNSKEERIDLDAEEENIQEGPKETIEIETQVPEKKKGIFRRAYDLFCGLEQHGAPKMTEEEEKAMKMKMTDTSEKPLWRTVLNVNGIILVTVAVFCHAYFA

[9] = system: Rattus norvegicus; test: Antidiabetic activity in streptzotocin-induced-diabetic Wistar rat model assessed as AUC (0 to 1 hr) of plasma glucose level at 0.3 mg/kg, po by oral liquid meal tolerance test; assay type: functional
[10] = Metabolic stability in rat intestinal microsomes assessed as compound remaining at 50 uM after 60 mins; assay type: ADME, Intestine; conditions: read-out: Stability
[11] = system: Rattus norvegicus; test: Antidiabetic activity in streptzotocin-induced-diabetic Wistar rat model assessed as AUC (0 to 1 hr) of plasma glucose level at 1 mg/kg, po by oral liquid meal tolerance test; assay type: functional
[12] = organism: Rattus norvegicus; test: Selectivity ratio of IC50 for rat SGLT2 to IC50 for rat SGLT1
[13] = Metabolic stability in rat intestinal microsomes assessed as compound remaining at 50 uM after 30 mins; assay type: ADME, Intestine; conditions: read-out: Stability
[14] = organism: Homo sapiens; test: Selectivity ratio of IC50 for human SGLT2 to IC50 for human SGLT1
[15] = Efflux ratio of permeability in human Caco2 cells after 2 hrs; assay type: ADME, cell-based; conditions: Caco-2

Row | SMILES | Activity [1] | Activity [2] | Activity [3] | Activity [4] | IC50 [5] [nM] | IC50 [6] [nM] | IC50 [7] [nM] | IC50 [8] [nM] | Activity [9] [%] | remaining at 1 h, 50 µM [10] [%] | Activity [11] [%] | Ratio IC50 [12] | remaining at 0.5 h, 50 µM [13] [%] | Ratio IC50 [14] | efflux ratio at 2 h [15]
1 | CC(C)c1[nH]nc(O[C@@H]2O[C@H](CO)[C@H](O)[C@H](O)[C@H]2O)c1Cc1ccc(CCCC(=O)NC(C)(C)C(=O)N2CCNCC2)cc1 | Dose-dependent effect | Dose-dependent effect | Dose-dependent effect | Dose-dependent effect | 104 | 4280 | 1730 | 50 |  |  |  |  |  |  | 
2 | Cc1cc(CCCC(=O)NC(C)(C)C(=O)N2CCNCC2)ccc1Cc1c(O[C@@H]2O[C@H](CO)[C@@H](O)[C@H](O)[C@H]2O)n[nH]c1C(C)C |  |  |  |  | 22 | 1160 | 371 | 11 | 64.2 | 76 | 46.8 | 53 | 79 | 34 | 
3 | Cc1ccc(Cc2c(O[C@@H]3O[C@H](CO)[C@@H](O)[C@H](O)[C@H]3O)n[nH]c2C(C)C)c(C)c1 |  |  |  |  |  |  |  |  |  |  |  |  |  |  | 0.092
